Reference: paper PMC7717492 (Science translational medicine, 2019)
pKd: −log10 of the molar value. “Also recorded” adds a separate entry of the source.

Legend:
MPS1 mutant cells = type: cell-based; details: CRISPR-mediated HDR knock-in
[1] = test system: MELK-knockout (KO) cancer cells; details: cited from earlier work
multiple cancer types = experiment: OTS964 potency in cancer cell lines
[2] = test system: A375 cells expressing H2B-mCherry; experiment: Mitotic progression after release from double-thymidine block into OTS964; type: cell-based, human
[3] = test system: CDK11B G579S / G579A cancer cells; experiment: Viability of CDK11B xDFG mutant cancer cells in OTS964; type: cell-based, human
CDK11B = CDK11B (Homo sapiens, UniProt P21127); experiment: Binding of OTS964 to different CDKs
MCF7 cells = details: caspase 3-deficient breast cancer cell line; cited from earlier work
CASP3-KO lines = experiment: Dose-response of Rosa26 and CASP3-KO cells with putative caspase-3 activators; type: cell-based, human; details: four different cell lines incl. A375 and HCT116
[4] = test system: Rosa26 and PAK4-KO melanoma cells; experiment: 7-point dose-response of Rosa26 and PAK4-KO cells with PF-3758309; type: cell-based; details: Homo sapiens, A-375
[5] = test system: MAPK14/p38α knockout clones; experiment: Sensitivity of MAPK14/p38α knockout clones to chemotherapy agents; type: cell-based, human; details: multiple cell lines
TOV-21G HDAC6-KO cells = experiment: Drug sensitivity of HDAC6-KO ovarian cancer cells; type: cell-based, human; details: ARID1A-mutant ovarian cancer cell line
p53 knockout cells = experiment: Nutlin-3a sensitivity after p53 knockout; type: cell-based
[6] = test system: OTS964-resistant HCT116 clones; experiment: Paclitaxel sensitivity of OTS964-resistant clones; details: HCT116 clones resistant to OTS964
HDAC6 knockout clones = experiment: Sensitivity of HDAC6 knockout clones to chemotherapy agents; type: cell-based, human; details: HDAC6 knockout versus control clones
FKBP12 KO clones = experiment: Rapamycin sensitivity of FKBP12 knockout clones; type: cell-based
HDAC6-KO HAP1 cells = details: cited from earlier work

Chain of CDK11B (P21127 whole entry): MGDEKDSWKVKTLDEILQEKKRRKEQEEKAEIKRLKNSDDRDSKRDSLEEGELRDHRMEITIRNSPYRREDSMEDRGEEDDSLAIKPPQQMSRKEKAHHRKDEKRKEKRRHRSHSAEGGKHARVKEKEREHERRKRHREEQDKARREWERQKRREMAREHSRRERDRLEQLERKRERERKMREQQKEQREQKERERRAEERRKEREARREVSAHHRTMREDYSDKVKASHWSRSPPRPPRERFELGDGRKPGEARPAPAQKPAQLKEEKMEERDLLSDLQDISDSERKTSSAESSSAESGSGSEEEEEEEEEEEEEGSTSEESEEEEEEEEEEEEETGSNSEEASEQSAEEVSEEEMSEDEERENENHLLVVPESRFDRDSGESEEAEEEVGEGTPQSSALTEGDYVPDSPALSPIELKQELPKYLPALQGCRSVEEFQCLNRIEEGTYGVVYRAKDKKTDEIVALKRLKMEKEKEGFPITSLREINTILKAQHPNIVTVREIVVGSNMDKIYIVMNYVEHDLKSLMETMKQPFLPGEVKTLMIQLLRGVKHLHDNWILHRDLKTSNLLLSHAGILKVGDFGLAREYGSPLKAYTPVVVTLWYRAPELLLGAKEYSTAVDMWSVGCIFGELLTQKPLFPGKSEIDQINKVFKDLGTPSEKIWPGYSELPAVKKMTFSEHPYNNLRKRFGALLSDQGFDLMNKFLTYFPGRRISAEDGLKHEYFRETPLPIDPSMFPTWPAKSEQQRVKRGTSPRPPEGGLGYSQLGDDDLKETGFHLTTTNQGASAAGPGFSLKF

## COc1cc(OC2CCN(C)CC2)ccc1Nc1ncc2c(n1)n(C1CCCC1)c(=O)n2C [AZ3146]
MPS1 mutant cells
  effect of MPS1 kinase domain missense mutation on drug sensitivity: capable of granting resistance

## CC(=O)c1cnc2ccc(-c3cc(Cl)c(O)c(Cl)c3)nc2c1N[C@H]1CC[C@H](CN(C)C)CC1 [OTS167]
[1]
  killing of MELK-KO cancer cells: no decrease in potency

## Cc1cc(O)c(-c2ccc(C(C)CN(C)C)cc2)c2c1[nH]c(=O)c1sccc12 (stereo not drawn) [OTS964]
Multiple cancer types
  potency: nanomolar potency
[2]; A375 cells with CDK11B G579S, lethal concentration of OTS964
  effect of G579S substitution on mitotic entry and progression in drug: rescued normal mitotic entry and progression
[2]; arrested cells: 4C DNA content, no 53BP1-foci
  effect on DNA replication: did not perturb DNA replication
[2]; lethal concentration of OTS964, release from double-thymidine block
  effect on cell cycle: arrested in G2
[2]; low concentration of OTS964, release from double-thymidine block
  effect on mitotic progression: delayed nuclear envelope breakdown and progressed slowly through mitosis
[3]; A375, A2780, DLD1 and MDA-MB-231 cells, lethal concentration of OTS964
  effect of CDK11B xDFG Gly→Ser (G579S) mutation on viability in drug: sufficient to restore viability
[3]; CDK11B residue 579 alanine substitution
  effect of alanine substitution at CDK11B residue 579 on drug efficacy: sufficient to decrease the efficacy
CDK11B
  pKd: 7.40

## C=CCc1cccc(/C=N/NC(=O)CN2CCN(Cc3ccccc3)CC2)c1O [PAC-1]
MCF7 cells
  IC50 value in MCF7 cells compared to caspase 3-expressing cell lines: higher
CASP3-KO lines
  sensitivity of CASP3-KO lines compared to Rosa26 controls: identical sensitivity

## Cc1nc(Nc2[nH]nc3c2CN(C(=O)N[C@H](CN(C)C)c2ccccc2)C3(C)C)c2sccc2n1 [PF-3758309]
[4]
  GI50: ~9 nM

## CC(C)C[C@H](NC(=O)[C@H](Cc1ccccc1)NC(=O)c1cnccn1)B(O)O [bortezomib]
[5]
  sensitivity of MAPK14/p38α knockout clones versus Rosa26 control clones: as sensitive

## N.N.O=C([O-])C1(C(=O)[O-])CCC1.[Pt+2] [carboplatin]
[5]
  sensitivity of MAPK14/p38α knockout clones versus Rosa26 control clones: as sensitive

## O=C(CCCCCCNC(=O)c1cnc(N(c2ccccc2)c2ccccc2Cl)nc1)NO [citarinostat]
TOV-21G HDAC6-KO cells
  sensitivity of TOV-21G HDAC6-KO cells: remained sensitive

## Nc1ccn([C@@H]2O[C@H](CO)[C@@H](O)C2(F)F)c(=O)n1 [gemcitabine]
[5]
  sensitivity of MAPK14/p38α knockout clones versus Rosa26 control clones: as sensitive

## COc1ccc(C2=N[C@@H](c3ccc(Cl)cc3)[C@@H](c3ccc(Cl)cc3)N2C(=O)N2CCNC(=O)C2)c(OC(C)C)c1 [nutlin-3a]
p53 knockout cells
  effect of p53 knockout on drug sensitivity: conferred resistance

## CC(=O)O[C@H]1C(=O)[C@@]2(C)[C@H]([C@H](OC(=O)c3ccccc3)[C@]3(O)C[C@H](OC(=O)[C@H](O)[C@@H](NC(=O)c4ccccc4)c4ccccc4)C(C)=C1C3(C)C)[C@]1(OC(C)=O)CO[C@@H]1C[C@@H]2O [paclitaxel]
[6]
  sensitivity of OTS964-resistant clones: remained sensitive
HDAC6 knockout clones
  effect of loss of HDAC6 on drug sensitivity: failed to sensitize

## CO[C@H]1C[C@@H]2CC[C@@H](C)[C@@](O)(O2)C(=O)C(=O)N2CCCC[C@H]2C(=O)O[C@H]([C@H](C)C[C@@H]2CC[C@@H](O)[C@H](OC)C2)CC(=O)[C@H](C)/C=C(\C)[C@@H](O)[C@@H](OC)C(=O)[C@H](C)C[C@H](C)/C=C/C=C/C=C/1C [rapamycin]
FKBP12 KO clones
  effect of FKBP12 knockout on drug sensitivity: increased resistance

## O=C(CCCCCCNC(=O)c1cnc(N(c2ccccc2)c2ccccc2)nc1)NO [ricolinostat]
TOV-21G HDAC6-KO cells
  sensitivity of TOV-21G HDAC6-KO cells: remained sensitive
HDAC6-KO HAP1 cells
  killing of HDAC6-KO HAP1 cells: continued to kill; also recorded: kills

## Cn1nnc2c(C(N)=O)ncn2c1=O [temozolomide]
[5]
  sensitivity of MAPK14/p38α knockout clones versus Rosa26 control clones: as sensitive
